# Source: patent publication US20030181426A1, “Compositions and methods for treating pain using cyclooxygenase-1 inhibitors” (priority 2002, published 2003)
# Experiments:
# acute noxious heat = test: Heat pain testing with Peltier-controlled thermode in volunteers; format: in vivo, humans; settings: for Pain threshold temperatures: in °C (unit assumed)
# tactile allodynia [1] = test: Partial sciatic nerve ligation (PSNL) tactile allodynia, i.t. COX inhibitors; format: in vivo, Sprague-Dawley rats
# Text: A Sprague-Dawley rats (Harlan Industries, Indianapolis, Ind., USA), weighing 200-250 g, were used in this study. All animal surgical procedures were in conformity with the Wake Forest University guidelines on the ethical use of animals and studies were approved by the Animal Care and Use Committee. Animals were implanted with intrathecal catheters according to the method described previously. (Yaksh TL, 1976). Briefly, under halothane anesthesia (2-4% in oxygen/air), animals were placed prone in a stereotaxic frame and a small incision was made at the back of the neck. A small puncture was made in the atlanto-occipital membrane of the cistema magna and a polyethylene catheter (PE-10, 7.5 cm) was inserted so that the caudal tip reached the lumbar enlargement of the spinal cord. The rostral end of the catheter was exteriorized at the top of the head and the wound was closed with sutures. Animals were allowed 4-5 days to recover from the surgery and those displaying signs of motor dysfunction (fore limb or hind limb paralysis) were excluded from the study. Rats were anesthetized with 2-4% halothane in oxygen-air. For partial […] nerve ligation (PSNL), the left sciatic nerve was exposed at the high thigh level and one-third to one-half of the nerve was ligated with silk suture (size 6) as previously described (Shir et al., 1991). Animals were maintained after surgery with ad libitum food and water on a 12-h light/dark cycle. All rats were allowed to recover for 4 weeks after PSNL. By then, tactile allodynia was well established in the ipsilateral hindpaw.
# [2] = Ketorolac concentration in cerebrospinal fluid (HPLC); format: in vivo, humans; settings: for concentration at 60 min: human, other: intrathecal (lumbar puncture), lumbar CSF 60 min after injection
# Description: Escalation to the next dose was made only after review of side effects occurring at lower doses, with pre-defined stopping criteria. CSF samples were quantitatively extracted by C-18 reverse phase cartridge chromatography and eluted with acetonitrile. Concentrated eluates were injected on to a HPLC equipped with a Phenomenex 'Prodigy' C-18 reverse phase column (250 mm×4.6 mm). Peaks were detected with an Agilent Model 1100 UV detector set at a wavelength of 313. All unknowns, standards and controls contained an equal quantity of internal standard, 200 ng of indoprofen.
# [3] = tested on: locomotor activity after laparotomy; test: Post-laparotomy locomotor activity model; format: in vivo, rats
# tactile allodynia [4] = test: PSNL tactile allodynia, local and systemic ketorolac; format: in vivo, rats; settings: for duration of reversal of tactile allodynia: disappeared by day 5; for tactile allodynia in the ipsilateral paw: three hours after injection
# Description: PSNL was performed as described above. […] Three rats in each group were also injected with normal saline to serve as controls. For all injections, rats were briefly anaesthetized by inhalation of 2-4% halothane/96% oxygen and air. Perineural injection was performed as previously described ([…] al. 1995). Briefly, the rat was held in lateral recumbency with the limb to be injected forming a right angle with a longitudinal axis of the trunk. The greater trochanter and ischial tuberosity were localized by palpation. On an imaginary line from the greater trochanter to the ischial tuberosity, about one third of the distance caudal to the greater trochanter, a 25-gauge injection needle was advanced from dorsolateral direction at a 45° angle until the tip encountered the ischium. A total volume of 0.2 mL was injected in a fanning motion along the path of the sciatic nerve.
# chronic pain = test: Intrathecal ketorolac in patients with chronic pain receiving spinal morphine (VAS); format: in vivo, humans
# Text: This study focused on safety, but efficacy measures were obtained by having patients rate their pain using a visual analog scale (VAS) before, and at intervals after, intrathecal injection of ketorolac. Data are available from the first 6 patients in this open label study.
# [5] = i.t. 50 μg, compared to i.t. saline control
compound,measurement,setting,value
O=C(c1ccccc1)c1ccc2n1CCC2C(=O)O (stereo not shown) [ketorolac],temperature pain threshold,acute noxious heat; 0.5 mg i.t.,did not affect
same,analgesic effect to acute noxious heat (pain magnitude report),"acute noxious heat; 0.5 mg i.t., moderate and severe pain intensities, FIG. 3",apparent effect
same,Pain threshold temperatures,"acute noxious heat; Arm, 0.25 mg i.t., 0.25 h",45 ± 1.0
same,Pain threshold temperatures,"acute noxious heat; Arm, 0.25 mg i.t., 0.5 h",44 ± 1.5
same,Pain threshold temperatures,"acute noxious heat; Arm, 0.25 mg i.t., 1 h",45 ± 1.3
same,Pain threshold temperatures,"acute noxious heat; Arm, 0.25 mg i.t., 2 h",44 ± 1.7
same,Pain threshold temperatures,"acute noxious heat; Arm, 0.25 mg i.t., 3 h",45 ± 1.1
same,Pain threshold temperatures,"acute noxious heat; Arm, 0.25 mg i.t., 4 h",44 ± 2.2
same,Pain threshold temperatures,"acute noxious heat; Arm, 0.25 mg i.t., 24 h",46 ± 0.5
same,Pain threshold temperatures,"acute noxious heat; Arm, 0.25 mg i.t., time 0 h (injection at time 0)",45 ± 1.1
same,Pain threshold temperatures,"acute noxious heat; Arm, 0.50 mg i.t., 0.25 h",44 ± 1.9
same,Pain threshold temperatures,"acute noxious heat; Arm, 0.50 mg i.t., 0.5 h",43 ± 1.2
same,Pain threshold temperatures,"acute noxious heat; Arm, 0.50 mg i.t., 1 h",44 ± 1.7
same,Pain threshold temperatures,"acute noxious heat; Arm, 0.50 mg i.t., 2 h",45 ± 1.9
same,Pain threshold temperatures,"acute noxious heat; Arm, 0.50 mg i.t., 3 h",46 ± 1.7
same,Pain threshold temperatures,"acute noxious heat; Arm, 0.50 mg i.t., 4 h",46 ± 1.7
same,Pain threshold temperatures,"acute noxious heat; Arm, 0.50 mg i.t., 24 h",44 ± 1.7
same,Pain threshold temperatures,"acute noxious heat; Arm, 0.50 mg i.t., time 0 h (injection at time 0)",45 ± 1.9
same,Pain threshold temperatures,"acute noxious heat; Arm, 1.0 mg i.t., 0.25 h",41 ± 1.3
same,Pain threshold temperatures,"acute noxious heat; Arm, 1.0 mg i.t., 0.5 h",40 ± 0.5
same,Pain threshold temperatures,"acute noxious heat; Arm, 1.0 mg i.t., 1 h",39 ± 0.7
same,Pain threshold temperatures,"acute noxious heat; Arm, 1.0 mg i.t., 2 h",41 ± 1.2
same,Pain threshold temperatures,"acute noxious heat; Arm, 1.0 mg i.t., 3 h",42 ± 0.9
same,Pain threshold temperatures,"acute noxious heat; Arm, 1.0 mg i.t., 4 h",42 ± 1.5
same,Pain threshold temperatures,"acute noxious heat; Arm, 1.0 mg i.t., 24 h",41 ± 1.6
same,Pain threshold temperatures,"acute noxious heat; Arm, 1.0 mg i.t., time 0 h (injection at time 0)",40 ± 0.5
same,Pain threshold temperatures,"acute noxious heat; Arm, 2.0 mg i.t., 0.25 h",44 ± 1.9
same,Pain threshold temperatures,"acute noxious heat; Arm, 2.0 mg i.t., 0.5 h",43 ± 1.4
same,Pain threshold temperatures,"acute noxious heat; Arm, 2.0 mg i.t., 1 h",40 ± 2.1
same,Pain threshold temperatures,"acute noxious heat; Arm, 2.0 mg i.t., 2 h",43 ± 1.8
same,Pain threshold temperatures,"acute noxious heat; Arm, 2.0 mg i.t., 3 h",43 ± 1.6
same,Pain threshold temperatures,"acute noxious heat; Arm, 2.0 mg i.t., 4 h",43 ± 1.9
same,Pain threshold temperatures,"acute noxious heat; Arm, 2.0 mg i.t., 24 h",45 ± 2.3
same,Pain threshold temperatures,"acute noxious heat; Arm, 2.0 mg i.t., time 0 h (injection at time 0)",44 ± 1.3
same,Pain threshold temperatures,"acute noxious heat; Leg, 0.25 mg i.t., 0.25 h",45 ± 1.1
same,Pain threshold temperatures,"acute noxious heat; Leg, 0.25 mg i.t., 0.5 h",46 ± 1.1
same,Pain threshold temperatures,"acute noxious heat; Leg, 0.25 mg i.t., 1 h",47 ± 0.7
same,Pain threshold temperatures,"acute noxious heat; Leg, 0.25 mg i.t., 2 h",46 ± 1.5
same,Pain threshold temperatures,"acute noxious heat; Leg, 0.25 mg i.t., 3 h",45 ± 1.1
same,Pain threshold temperatures,"acute noxious heat; Leg, 0.25 mg i.t., 4 h",46 ± 0.9
same,Pain threshold temperatures,"acute noxious heat; Leg, 0.25 mg i.t., 24 h",45 ± 1.1
same,Pain threshold temperatures,"acute noxious heat; Leg, 0.25 mg i.t., time 0 h (injection at time 0)",45 ± 1.3
same,Pain threshold temperatures,"acute noxious heat; Leg, 0.50 mg i.t., 0.25 h",46 ± 2.4
same,Pain threshold temperatures,"acute noxious heat; Leg, 0.50 mg i.t., 0.5 h",48 ± 2.2
same,Pain threshold temperatures,"acute noxious heat; Leg, 0.50 mg i.t., 1 h",46 ± 1.7
same,Pain threshold temperatures,"acute noxious heat; Leg, 0.50 mg i.t., 2 h",46 ± 2.5
same,Pain threshold temperatures,"acute noxious heat; Leg, 0.50 mg i.t., 3 h",46 ± 1.7
same,Pain threshold temperatures,"acute noxious heat; Leg, 0.50 mg i.t., 4 h",46 ± 2.4
same,Pain threshold temperatures,"acute noxious heat; Leg, 0.50 mg i.t., 24 h",45 ± 2.0
same,Pain threshold temperatures,"acute noxious heat; Leg, 0.50 mg i.t., time 0 h (injection at time 0)",45 ± 1.4
same,Pain threshold temperatures,"acute noxious heat; Leg, 1.0 mg i.t., 0.25 h",42 ± 1.7
same,Pain threshold temperatures,"acute noxious heat; Leg, 1.0 mg i.t., 0.5 h",42 ± 0.5
same,Pain threshold temperatures,"acute noxious heat; Leg, 1.0 mg i.t., 1 h",44 ± 0.5
same,Pain threshold temperatures,"acute noxious heat; Leg, 1.0 mg i.t., 2 h",42 ± 1.5
same,Pain threshold temperatures,"acute noxious heat; Leg, 1.0 mg i.t., 3 h",43 ± 1.0
same,Pain threshold temperatures,"acute noxious heat; Leg, 1.0 mg i.t., 4 h",43 ± 1.1
same,Pain threshold temperatures,"acute noxious heat; Leg, 1.0 mg i.t., 24 h",42 ± 0.9
same,Pain threshold temperatures,"acute noxious heat; Leg, 1.0 mg i.t., time 0 h (injection at time 0)",41 ± 1.3
same,Pain threshold temperatures,"acute noxious heat; Leg, 2.0 mg i.t., 0.25 h",45 ± 1.4
same,Pain threshold temperatures,"acute noxious heat; Leg, 2.0 mg i.t., 0.5 h",43 ± 1.3
same,Pain threshold temperatures,"acute noxious heat; Leg, 2.0 mg i.t., 1 h",44 ± 2.1
same,Pain threshold temperatures,"acute noxious heat; Leg, 2.0 mg i.t., 2 h",44 ± 2.3
same,Pain threshold temperatures,"acute noxious heat; Leg, 2.0 mg i.t., 3 h",43 ± 1.6
same,Pain threshold temperatures,"acute noxious heat; Leg, 2.0 mg i.t., 4 h",44 ± 1.8
same,Pain threshold temperatures,"acute noxious heat; Leg, 2.0 mg i.t., 24 h",45 ± 2.2
same,Pain threshold temperatures,"acute noxious heat; Leg, 2.0 mg i.t., time 0 h (injection at time 0)",45 ± 1.6
same,response to suprathreshold stimuli,acute noxious heat; any dose (0.25-2 mg i.t.),no effect
same,threshold to heat pain in either the arm or the leg,acute noxious heat; i.t. 0.25-2 mg,unaffected
same,analgesia to acute noxious heat,"acute noxious heat; i.t., doses up to 1.0 mg",several hours of analgesia
same,duration of reversal of withdrawal threshold,tactile allodynia [1]; 4 weeks after PSNL,6 days
same,"withdrawal threshold, ipsilateral hindpaw","tactile allodynia [1]; 4 weeks after PSNL, two hours following injection",significantly reversed to pre-lesion baseline
same,"withdrawal threshold, ipsilateral hindpaw",tactile allodynia [1]; eight days after injection,returned to the pre-injection level
same,dose dependence of lumbar CSF drug concentration,[2]; 60 min after injection,apparent plateau at the 1 and 2 mg doses
same,concentration at 60 min,"[2]; 0.5 mg, 0.50 mg i.t.",13400 ± 1200 ng/mL
same,concentration at 60 min,[2]; 0.25 mg i.t.,4600 ± 200 ng/mL
same,concentration at 60 min,[2]; 1.0 mg i.t.,30700 ± 8800 ng/mL
same,concentration at 60 min,[2]; 2.0 mg i.t.,33500 ± 5200 ng/mL
same,ambulatory locomotor activity after laparotomy,[3]; [5],increased
same,vertical locomotor activity after laparotomy,[3]; [5],increased
same,locomotor activity in the absence of surgery,[3]; ketorolac alone,no effect
same,effect on morphine's effect on ambulatory activity,[3]; systemic ketorolac 5 mg/kg i.p. with morphine,potentiate morphine's effect
same,ambulatory activity after laparotomy,"[3]; systemic, 5 mg/kg i.p.",failed to affect ambulatory activity
same,duration of reversal of tactile allodynia,tactile allodynia [4]; 0.2 mL 0.5% intramuscular,3 days
same,tactile allodynia in the ipsilateral paw,tactile allodynia [4]; 0.2 mL 0.5% intramuscular,reversed
same,duration of reversal of tactile allodynia,tactile allodynia [4]; 0.2 mL 0.5% intraperitoneal,3 days
same,tactile allodynia in the ipsilateral paw,tactile allodynia [4]; 0.2 mL 0.5% intraperitoneal,reversed
same,tactile allodynia in the ipsilateral hindpaw,"tactile allodynia [4]; 0.2 mL 0.5% intraplantar, 3 weeks after PSNL, three hours to 5 days",reversed the tactile allodynia
same,antiallodynic effect,"tactile allodynia [4]; 0.2 mL 0.5% peri-neural, 3 weeks after PSNL",slow onset of antiallodynic effect that was observed only 3 and 5 days after injection
same,spinal neurotoxicity,"i.t., rats",no evidence for spinal neurotoxicity
same,systemic toxicity at large doses,"rat, in vivo",gastrointestinal ulceration and bleeding
same,VAS pain,"chronic pain; beginning 1 hour after injection and lasting throughout the remaining 3 hours of observation, n=6",significantly reduced
same,adverse events,"chronic pain; i.t. 0.5 mg (5 patients) or 1.0 mg (1 patient), patients on spinal morphine",no significant adverse events
same,VAS pain after injection,chronic pain; n=6,3
same,VAS pain prior to injection,chronic pain; n=6,5
